One series has as its target T1, human NK-1 receptor (Homo sapiens, UniProt P25103).
T1 construct: expressed in transfected cells; host or cells: CHO cells infected using the Semliki virus expression system; membrane suspension
The series can be described thus: NK-1 receptor binding, [3H]substance P displacement. Particulars: human NK-1 receptors in CHO cells, [3H]substance P 0.6 nM; read-out: pKi(NK-1) (converted). The procedure: The affinity of test compounds for the NK-1 receptor was evaluated at human NK-1 receptors in CHO cells infected with the human NK-1 receptor (using the Semliki virus expression system) and radiolabelled with [^3H]substance P (final concentration 0.6 nM). Binding assays were performed in HEPES buffer (50 mM, pH 7.4) containing BSA (0.04%) leupeptin (8 μg/ml), MnCl2 (3 mM) and phosphoramidon (2 μM). Binding assays consisted of 250 μl of membrane suspension (1.25×10^5 cells/assay tube), […] of buffer of displacing agent and 125 μl of [^3H]substance P. Displacement curves were determined with at least seven concentrations of the compound. The assay tubes were incubated for 60 min at room temperature after which time the tube contents were rapidly filtered under vacuum through GF/C filters presoaked for 60 min with PEI (0.3%) with 2×2 ml washes of HEPES buffer (50 mM, pH 7.4). The radioactivity retained on the filters was measured by scintillation counting. All assays were performed in triplicate in at least 2 separate experiments.

A short description of another series: Equilibrium solubility. The series is classed as physicochemical. The following applies: citrate buffer, aqueous buffer, thermodynamic from solid; pH 4.2, 0.15 M Citrat-buffer, 21° C. The procedure: Method Description Equilibrium Solubility
Equilibrium solubility values were determined at pH 4.2 (0.15 M Citrat-buffer). A known amount of drug, generally 1–2 mg, was added to 250 μl of buffer (glass tubes) and the resulting suspension was stirred for 2 h (21° C.), after 5 minutes of sonification. The pH of the solution was checked and corrected if necessary (in case of pH correction, the solution was once more shaken and equilibrated) and after 24 h the suspension was filtered through a 0.65-μm filter. The filtered solution was then assayed by HPLC to determine the drug concentration. In cases where the drug had completely dissolved in the buffer, the value for equilibrium solubility was assumed to be higher than the value determined by HPLC and was reported as such. Stock solutions (˜1 mg/ml) in DMSO were used in the preparation of a calibration curve in the related buffer using HPLC analytics.

In brackets after ≈: the same amount, converted by molar mass.

T1 sequence (P25103 whole entry): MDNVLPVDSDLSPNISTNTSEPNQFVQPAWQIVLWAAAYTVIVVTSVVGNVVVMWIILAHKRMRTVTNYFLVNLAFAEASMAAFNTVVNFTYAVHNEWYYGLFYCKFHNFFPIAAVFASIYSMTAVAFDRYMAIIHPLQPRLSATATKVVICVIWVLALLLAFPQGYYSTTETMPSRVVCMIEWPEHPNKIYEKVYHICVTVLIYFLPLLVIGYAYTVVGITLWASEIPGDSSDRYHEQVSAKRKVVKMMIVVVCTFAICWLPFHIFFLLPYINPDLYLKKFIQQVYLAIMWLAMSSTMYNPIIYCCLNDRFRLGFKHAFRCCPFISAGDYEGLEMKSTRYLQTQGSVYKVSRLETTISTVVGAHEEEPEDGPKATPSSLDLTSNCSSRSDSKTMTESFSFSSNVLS

Consider `Cc1ccccc1-c1cc(N2CCN(C)CC2)ncc1N(C)C(=O)C(C)(C)c1cc(C(F)(F)F)cc(C(F)(F)F)c1` [EP 1 035 115A1example 14, reference compound], for which the Ki on human NK-1 receptor was 0.977 nM. Also, the solubility (commonly the dissolved amount per volume that the medium holds) at 24 h in “Equilibrium solubility” was 26 µg/mL (≈ 0.0449 mM). With `Cc1ccccc1-c1cc(N2CCN(C)CC2)ncc1C(=O)N(C)Cc1cc(C(F)(F)F)cc(C(F)(F)F)c1` [EP 1 035 115A1example 12, reference compound], in the series “Equilibrium solubility”, the concentration in solution (solubility at 24 h) was 495 µg/mL (≈ 0.899 mM). Turning to `Cc1ncccc1-c1cc(N2CCN(C)CC2)ncc1N(C)C(=O)C(C)(C)c1cc(C(F)(F)F)cc(C(F)(F)F)c1` [Example 2, 2-(3,5-Bis-trifluoromethyl-phenyl)-N-methyl-N-[2-methyl-6′-(4-methyl-piperazin-1-yl)-[3,4′]bipyridinyl-3′-yl]-isobutyramide], the Ki on human NK-1 receptor is 1.1 nM. In “Equilibrium solubility”, this compound showed a solubility at 24 h of 7500 µg/mL (≈ 12.9 mM). In the case of `Cc1ncccc1-c1cc(N2CCN(C)CC2)ncc1C(=O)N(C)Cc1cc(C(F)(F)F)cc(C(F)(F)F)c1` [Example 1, 2-Methyl-6′-(4-methyl-piperazin-1-yl)-[3,4′]bipyridinyl-3′-carboxylic acid (3,5-bis-trifluoromethyl-benzyl)-methyl-amide], at human NK-1 receptor, the Ki was 2.75 nM. The compound also showed a solubility at 24 h in “Equilibrium solubility” of 13700 µg/mL (≈ 24.8 mM).

The values above are taken from patent publication US7176205B2, “Bi-pyridinyl derivatives as NK-1 antagonists” (Hoffmann-La Roche Inc., priority 2005, dated 2007).
